Test results from patent publication US12577228B2, “Dihydrocyclopenta-isoquinoline-sulfonamide derivatives compounds” (UCB Biopharma SRL, priority 2019, dated 2026).
Where a name gives a salt, the structure may show the parent alone.

target: T1, IgE-Tb / soluble IgE receptor FcεRIα with a Y131A mutation (Homo sapiens, UniProt P01854, N146Q/N252Q); test: in vitro FRET assay: binding of IgE-Tb to receptor FcεRIα-Y131A-AF488 and its inhibition by compounds; conditions: 5 nM IgE-Tb, 25 nM FcεRIα-Y131A-AF488, 2 hours at room temperature; read-out: FRET IC50 range
T1 construct: fused on or other part: Terbium chelate (LanthaScreen amine-reactive) on IgE-Fc; Alexa Fluor 488 hydrazide on the oxidised glycans of sFcεRIα; Both are labels and no part of the key
T1 sequence (P01854 104-427 N146Q/N252Q): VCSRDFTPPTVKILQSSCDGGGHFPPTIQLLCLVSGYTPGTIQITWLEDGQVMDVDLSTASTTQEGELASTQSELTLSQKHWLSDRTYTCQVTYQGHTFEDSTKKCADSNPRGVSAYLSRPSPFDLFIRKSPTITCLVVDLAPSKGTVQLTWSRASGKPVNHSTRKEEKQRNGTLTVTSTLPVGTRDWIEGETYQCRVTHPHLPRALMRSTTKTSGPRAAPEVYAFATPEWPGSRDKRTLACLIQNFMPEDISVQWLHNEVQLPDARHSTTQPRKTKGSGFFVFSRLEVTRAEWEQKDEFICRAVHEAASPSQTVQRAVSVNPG
T1 sequence (P12319 26-201 Y156A partner): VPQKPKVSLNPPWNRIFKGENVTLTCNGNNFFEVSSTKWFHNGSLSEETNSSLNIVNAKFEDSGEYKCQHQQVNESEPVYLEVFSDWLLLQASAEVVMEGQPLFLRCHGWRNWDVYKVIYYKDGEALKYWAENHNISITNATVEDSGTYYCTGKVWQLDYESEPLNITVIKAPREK

CNS(=O)(=O)c1ccc(N[C@@H]2Cc3cc4cnc(C5CC5)cc4c(S(=O)(=O)NCC(C)(C)F)c3C2)cn1 [Example 93, (7R)-3-cyclopropyl-N-(2-fluoro-2-methylpropyl)-7-[[6-(methylsulfamoyl)pyridin-3-yl]amino]-7,8-dihydro-6H-cyclopenta[g]isoquinoline-5-sulfonamide] and CC(C)(F)CNS(=O)(=O)c1c2c(cc3cnc(C4CC4)cc13)C[C@@H](Nc1ccc(C(=O)O)nc1)C2 [Example 15, 5-[[(7R)-3-cyclopropyl-5-[(2-fluoro-2-methylpropyl)sulfamoyl]-7,8-dihydro-6H-cyclopenta[g]isoquinolin-7-yl]amino]pyridine-2-carboxylic acid] fall in the same range of IC50: 10 to 50 nM for the first, 10 to 50 nM for the second.

Cc1nc(-c2ccc(N[C@@H]3Cc4cc5cnc(C6CC6)cc5c(S(=O)(=O)NCC(C)(C)F)c4C3)cn2)no1 [Example 31, (7R)-3-cyclopropyl-N-(2-fluoro-2-methylpropyl)-7-[[6-(5-methyl-1,2,4-oxadiazol-3-yl)pyridin-3-yl]amino]-7,8-dihydro-6H-cyclopenta[g]isoquinoline-5-sulfonamide] and Cc1noc(-c2ccc(N[C@@H]3Cc4cc5cnc(C6CC6)cc5c(S(=O)(=O)NCC(C)(C)F)c4C3)cn2)n1 [Example 36, (7R)-3-cyclopropyl-N-(2-fluoro-2-methylpropyl)-7-[[6-(3-methyl-1,2,4-oxadiazol-5-yl)pyridin-3-yl]amino]-7,8-dihydro-6H-cyclopenta[g]isoquinoline-5-sulfonamide] fall in the same range of IC50: 1 to 10 nM for the first, 1 to 10 nM for the second.

First: Cc1ccc(NC2Cc3cc4cnc(C5CC5)cc4c(S(=O)(=O)NCC(C)(C)O)c3C2)nn1 (stereo not drawn) [Example 80, 3-cyclopropyl-N-(2-hydroxy-2-methylpropyl)-7-[(6-methylpyridazin-3-yl)amino]-7,8-dihydro-6H-cyclopenta[g]isoquinoline-5-sulfonamide]
Second: CC(C)(F)CNS(=O)(=O)c1c2c(cc3cnc(C4CC4)cc13)C[C@@H](Nc1ccc(C(C)(C)O)nc1)C2 [Example 39, (7R)-3-cyclopropyl-N-(2-fluoro-2-methylpropyl)-7-[[6-(2-hydroxypropan-2-yl)pyridin-3-yl]amino]-7,8-dihydro-6H-cyclopenta[g]isoquinoline-5-sulfonamide]
The IC50 of the first is higher: 100 to 2000 nM for the first, 10 to 50 nM for the second.

First: Cn1ccc(Oc2ccncc2N[C@@H]2Cc3cc4cnc(C5CC5)cc4c(S(=O)(=O)NCC(C)(C)F)c3C2)n1 [Example 128, (7R)-3-cyclopropyl-N-(2-fluoro-2-methylpropyl)-7-[[4-(1-methylpyrazol-3-yl)oxypyridin-3-yl]amino]-7,8-dihydro-6H-cyclopenta[g]isoquinoline-5-sulfonamide]
Second: Cn1ncc2c(NC3Cc4cc5cnc(C6CC6)cc5c(S(=O)(=O)NCC(C)(C)F)c4C3)cncc21 (stereo not drawn) [Example 84, 3-cyclopropyl-N-(2-fluoro-2-methylpropyl)-7-[(1-methylpyrazolo[3,4-c]pyridin-4-yl)amino]-7,8-dihydro-6H-cyclopenta[g]isoquinoline-5-sulfonamide]
The IC50 of the first is higher: 50 to 100 nM for the first, 10 to 50 nM for the second.

First: O=c1cc(C2Cc3cc4cnc(C5CC5)cc4c(S(=O)(=O)NC4CC(F)(F)C4)c3C2)[nH]n1-c1cccnc1 (stereo not drawn) [Example 111, 3-cyclopropyl-N-(3,3-difluorocyclobutyl)-7-(3-oxo-2-pyridin-3-yl-1H-pyrazol-5-yl)-7,8-dihydro-6H-cyclopenta[g]isoquinoline-5-sulfonamide]
Second: CC(C)(F)CNS(=O)(=O)c1c2c(cc3cnc(C4CC4)cc13)CC(c1nc3c(=O)[nH]ccc3[nH]1)C2 (stereo not drawn) [Example 71, 3-cyclopropyl-N-(2-fluoro-2-methylpropyl)-7-(4-oxo-1,5-dihydroimidazo[4,5-c]pyridin-2-yl)-7,8-dihydro-6H-cyclopenta[g]isoquinoline-5-sulfonamide]
The IC50 of the first is higher: 100 to 2000 nM for the first, 50 to 100 nM for the second.

Cc1nnc(-n2ccc(N[C@@H]3Cc4cc5cnc(C6CC6)cc5c(S(=O)(=O)NCC(C)(C)F)c4C3)cc2=O)o1 [Example 92, (7R)-3-cyclopropyl-N-(2-fluoro-2-methylpropyl)-7-[[1-(5-methyl-1,3,4-oxadiazol-2-yl)-2-oxopyridin-4-yl]amino]-7,8-dihydro-6H-cyclopenta[g]isoquinoline-5-sulfonamide] and CC(C)(F)CNS(=O)(=O)c1c2c(cc3cnc(C4CC4)cc13)CC(Nc1cc[nH]c(=O)c1)C2 (stereo not drawn) [Example 63, 3-cyclopropyl-N-(2-fluoro-2-methylpropyl)-7-[(2-oxo-1H-pyridin-4-yl)amino]-7,8-dihydro-6H-cyclopenta[g]isoquinoline-5-sulfonamide] fall in the same range of IC50: 10 to 50 nM for the first, 10 to 50 nM for the second.

Cn1cc(C(=O)N[C@@H]2Cc3cc4cnc(C5CC5)cc4c(S(=O)(=O)NCC(C)(C)F)c3C2)c2ccccc21 [Example 132, N-[(7R)-3-cyclopropyl-5-[(2-fluoro-2-methylpropyl)sulfamoyl]-7,8-dihydro-6H-cyclopenta[g]isoquinolin-7-yl]-1-methylindole-3-carboxamide] and CC(C)(F)CNS(=O)(=O)c1c2c(cc3cnc(C4CC4)cc13)C[C@@H](NC(=O)c1ccc3[nH]nnc3c1)C2 [Example 34, N-[(7R)-3-cyclopropyl-5-[(2-fluoro-2-methylpropyl)sulfamoyl]-7,8-dihydro-6H-cyclopenta[g]isoquinolin-7-yl]-1H-benzotriazole-5-carboxamide] fall in the same range of IC50: 10 to 50 nM for the first, 10 to 50 nM for the second.

Cn1nnc(-c2ccc(NC3Cc4cc5cnc(C6CC6)cc5c(S(=O)(=O)NCC5(F)COC5)c4C3)cn2)n1 (stereo not drawn) [Example 13, 3-cyclopropyl-N-[(3-fluorooxetan-3-yl)methyl]-7-[[6-(2-methyltetrazol-5-yl)pyridin-3-yl]amino]-7,8-dihydro-6H-cyclopenta[g]isoquinoline-5-sulfonamide] and CC(C)(F)CNS(=O)(=O)c1c2c(cc3cnc(C4CC4)cc13)C[C@@H](Nc1cnc(-c3nnn[nH]3)nc1)C2 [Example 124, (7R)-3-cyclopropyl-N-(2-fluoro-2-methylpropyl)-7-[[2-(1H-tetrazol-5-yl)pyrimidin-5-yl]amino]-7,8-dihydro-6H-cyclopenta[g]isoquinoline-5-sulfonamide] fall in the same range of IC50: 10 to 50 nM for the first, 10 to 50 nM for the second.

Compared with CCOC(=O)c1ncn([C@H]2Cc3cc4cnc(C5CC5)cc4c(S(=O)(=O)NCC(C)(C)F)c3C2)c1N [Example 8, ethyl 5-amino-1-[(7S)-3-cyclopropyl-5-[(2-fluoro-2-methylpropyl)sulfamoyl]-7,8-dihydro-6H-cyclopenta[g]isoquinolin-7-yl]imidazole-4-carboxylate], CC(=O)c1ccc(N[C@@H]2Cc3cc4cnc(C5CC5)cc4c(S(=O)(=O)NCC(C)(C)F)c3C2)cc1 [Example 114, (7R)-7-(4-acetylanilino)-3-cyclopropyl-N-(2-fluoro-2-methylpropyl)-7,8-dihydro-6H-cyclopenta[g]isoquinoline-5-sulfonamide] is lower in IC50: 100 to 2000 nM for the first, 50 to 100 nM for the second.

CC(C)(F)CNS(=O)(=O)c1c2c(cc3cnc(C4CC4)cc13)CC(Nc1cncc3[nH]ncc13)C2 (stereo not drawn) [Example 83, 3-cyclopropyl-N-(2-fluoro-2-methyl-propyl)-7-(1H-pyrazolo[3,4-c]pyridin-4-ylamino)-7,8-dihydro-6H-cyclopenta[g]isoquinoline-5-sulfonamide, formate salt] and CC(C)(F)CNS(=O)(=O)c1c2c(cc3cnc(C4CC4)cc13)CC(Nc1cncc3[nH]cnc13)C2 (stereo not drawn) [Example 62, 3-cyclopropyl-N-(2-fluoro-2-methylpropyl)-7-(3H-imidazo[4,5-c]pyridin-7-ylamino)-7,8-dihydro-6H-cyclopenta[g]isoquinoline-5-sulfonamide] fall in the same range of IC50: 10 to 50 nM for the first, 10 to 50 nM for the second.

Compared with CC(C)CNS(=O)(=O)c1c2c(c(N)c3cnc(C4CC4)cc13)CCC2 [Example 21, 9-amino-3-cyclopropyl-N-(2-methylpropyl)-7,8-dihydro-6H-cyclopenta[g]isoquinoline-5-sulfonamide], CC(C)CNS(=O)(=O)N1Cc2cc3cnc(C4CC4)cc3c(S(=O)(=O)NCC(C)(C)F)c2C1 [Example 99, 7-cyclopropyl-9-N-(2-fluoro-2-methylpropyl)-2-N-(2-methylpropyl)-1,3-dihydropyrrolo[3,4-g]isoquinoline-2,9-disulfonamide] is higher in IC50: 50 to 100 nM for the first, 100 to 2000 nM for the second.

CC(C)(F)CNS(=O)(=O)c1c2c(cc3cnc(C4CC4)cc13)C[C@@H](Nc1cnc(Cl)cc1-c1nnn[nH]1)C2 [Example 126, (7R)-7-[[6-chloro-4-(1H-tetrazol-5-yl)pyridin-3-yl]amino]-3-cyclopropyl-N-(2-fluoro-2-methylpropyl)-7,8-dihydro-6H-cyclopenta[g]isoquinoline-5-sulfonamide] and CC(C)(F)CNS(=O)(=O)c1c2c(cc3cnc(C4CC4)cc13)CC(Nc1cncc(C#N)c1)C2 (stereo not drawn) [Example 122, 7-[(5-cyanopyridin-3-yl)amino]-3-cyclopropyl-N-(2-fluoro-2-methylpropyl)-7,8-dihydro-6H-cyclopenta[g]isoquinoline-5-sulfonamide] fall in the same range of IC50: 100 to 2000 nM for the first, 100 to 2000 nM for the second.

CC(=O)Nc1cncc(NC2Cc3cc4cnc(C5CC5)cc4c(S(=O)(=O)NCC(C)(C)F)c3C2)c1 (stereo not drawn) [Example 121, N-[5-[[3-cyclopropyl-5-[(2-fluoro-2-methylpropyl)sulfamoyl]-7,8-dihydro-6H-cyclopenta[g]isoquinolin-7-yl]amino]pyridin-3-yl]acetamide] and CC(C)(F)CNS(=O)(=O)c1c2c(cc3cnc(C4CC4)cc13)C[C@@H](Nc1cncc3nn(CCO)cc13)C2 [Example 106, (7R)-3-cyclopropyl-N-(2-fluoro-2-methylpropyl)-7-[[2-(2-hydroxyethyl)pyrazolo[3,4-c]pyridin-4-yl]amino]-7,8-dihydro-6H-cyclopenta[g]isoquinoline-5-sulfonamide] fall in the same range of IC50: 10 to 50 nM for the first, 10 to 50 nM for the second.

CC(C)(F)CNS(=O)(=O)c1c2c(cc3cnc(C4CC4)cc13)C[C@@H](Nc1cncnc1OC1CCOCC1)C2 [Example 120, (7R)-3-cyclopropyl-N-(2-fluoro-2-methylpropyl)-7-[[4-(oxan-4-yloxy)pyrimidin-5-yl]amino]-7,8-dihydro-6H-cyclopenta[g]isoquinoline-5-sulfonamide] gave an IC50 of 50 to 100 nM.
